Publication PMC3863987 (Journal of medicinal chemistry, 2012)

Experiments:
recombinant P. vivax NMT = molecular target: T1, recombinant P. vivax NMT (Plasmodium vivax, UniProt A5K1A2); assay: Fluorogenic NMT enzyme assay, P. vivax NMT; type: biochemical
T1 sequence (A5K1A2 1-410): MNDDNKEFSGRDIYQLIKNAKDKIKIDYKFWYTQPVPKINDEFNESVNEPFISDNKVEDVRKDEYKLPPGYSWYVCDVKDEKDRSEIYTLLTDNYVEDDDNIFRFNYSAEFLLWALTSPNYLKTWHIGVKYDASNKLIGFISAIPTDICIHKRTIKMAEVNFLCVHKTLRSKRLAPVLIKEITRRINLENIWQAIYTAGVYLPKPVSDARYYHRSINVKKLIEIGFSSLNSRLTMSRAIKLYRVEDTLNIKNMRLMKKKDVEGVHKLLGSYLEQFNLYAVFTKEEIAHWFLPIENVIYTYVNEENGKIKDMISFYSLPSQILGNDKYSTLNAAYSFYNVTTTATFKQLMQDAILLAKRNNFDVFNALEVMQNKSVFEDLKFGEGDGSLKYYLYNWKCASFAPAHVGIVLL

Solubility = type: physicochemical; details: ethyl ester in position 3 in place of the aliphatic chain
[1] = substrate: C[C@H](NC(=O)[C@H](CC(=O)O)NC(=O)[C@H](CCCCN)NC(=O)[C@@H]1CCCN1C(=O)[C@H](CCCCN)NC(=O)[C@H](CO)NC(=O)[C@H](CCCCN)NC(=O)[C@H](CC(N)=O)NC(=O)[C@H](CO)NC(=O)CN)C(=O)N[C@@H](CO)C(=O)N[C@@H](CCC(N)=O)C(=O)N[C@@H](CCCNC(=N)N)C(=O)N[C@@H](CCCNC(=N)N)C(=O)N[C@@H](CCCNC(=N)N)C(N)=O; assay: Fluorogenic NMT enzyme assay, P. vivax NMT; type: biochemical, Plasmodium vivax; details: other: peptide substrate for the PvNMT assay, in assay conditions

Row | Molecule | inhibitory activity against PvNMT (in words) (recombinant P. vivax NMT) | also measured
1 | CCCCc1c(C)nc2ccc(OC)cc2c1SCCC#N.Cl [Compound 1, 3-butyl-4-((2-cyanoethyl)thio)-6-methoxy-2-methyl-quinoline] | micromolar IC50 | –
2 | CCOC(=O)c1cnc2ccc(OC)cc2c1SCCC#N [Compound 7] | – | solubility (in words) (Solubility): greatly improved solubility
3 | CCOC(=O)c1c(C)nc2ccccc2c1NCC#N.Cl [Compound 17] | complete loss of activity | –
4 | recombinant P. vivax NMT (Plasmodium vivax Sal-1) (protein) MNDDNKEFSGRDIYQLIKNAKDKIKIDYKFWYTQPVPKINDEFNESVNEPFISDNKVEDVRKDEYKLPPGYSWYVCDVKDEKDRSEIYTLLTDNYVEDDDNIFRFNYSAEFLLWALTSPNYLKTWHIGVKYDASNKLIGFISAIPTDICIHKRTIKMAEVNFLCVHKTLRSKRLAPVLIKEITRRINLENIWQAIYTAGVYLPKPVSDARYYHRSINVKKLIEIGFSSLNSRLTMSRAIKLYRVEDTLNIKNMRLMKKKDVEGVHKLLGSYLEQFNLYAVFTKEEIAHWFLPIENVIYTYVNEENGKIKDMISFYSLPSQILGNDKYSTLNAAYSFYNVTTTATFKQLMQDAILLAKRNNFDVFNALEVMQNKSVFEDLKFGEGDGSLKYYLYNWKCASFAPAHVGIVLL | – | Km [1]: 5.71 ± 0.6 µM
